For series [1] the following is noted: in water and ethanol/water mixtures; cited from earlier work.
Series [2] in a line: Non-aggregation of diclofenac free acid in dispersion (Malvern laser particle size analyzer). The series is classed as physicochemical. On the procedure:
For example, the edible film of Example 2 completely disintegrates within 15 seconds. • (b) Plasma levels of diclofenac: The plasma levels of diclofenac are measured in vivo, e.g. in pigs, at different time intervals after oral administration of the edible films. Edible films according to the invention may produce similar plasma levels of diclofenac as a commercially available tablet comprising 12.5 mg diclofenac potassium (Voltaren® Dolo) [AUC (=Area Under the Curve) is essentially the same]. Tmax may be even shorter in edible films than in Voltaren® Dolo—what is desirable in many cases. • (c) Consumer testing of the organoleptic properties of the edible films: The perception of the edible films immediately after administration is tested. An immediate softening and pleasant feeling in the mouth are realized. • (d) Taste evaluation of the edible films: The taste of the edible films is evaluated in vitro with the aid of an “electronic tongue” equipment and also in consumer tests. […] For example, the particle size of—non-micronized or micronized—diclofenac free acid is measured with the aid of a Malvern (UK) laser particle size analyzer equipment before and after processing, under different conditions of manufacture, to an edible film.

Results on 1 compound are retold here after patent US8911769B2, “Orally disintegrating pharmaceutical composition comprising diclofenac” (Novartis AG, priority 2004, dated 2014).

As for `O=C(O)Cc1ccccc1Nc1c(Cl)cccc1Cl` [diclofenac free acid], the solubility entry in series [1] is on record as “only poorly soluble”. Besides, the “particle size distribution profile, starting material versus released from edible films” value in series [2] (before and after processing to an edible film (with ethanol, without ethanol, without ethanol with homogenization), disintegrated in water) is “essentially is no difference”. Also, in series [2] (non-micronized (mean particle size 16 micrometers) or micronized, solvents e.g. water, water/ethanol or ethanol), the aggregation in dispersion entry is “no such aggregation does occur”.
